Our source for the IC50 values is patent US20240034731A1, “AZA-QUINAZOLINE COMPOUNDS AND METHODS OF USE” (Iambic Therapeutics, Inc., priority 2022, published 2024).

Test [1] addresses CDK6/Cyclin D3 (Homo sapiens (Human), UniProt Q00534). As to the kind of experiment: CDK6/Cyclin D3 ADP-Glo Kinase Assay. It is filed as biochemical. The settings on record: 100 uM ATP, read-out: CDK6/ CyclinD3 IC50. The gist of the method:
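ADP-Glo luminescence measured ADP produced by CDK6/Cyclin D3 in a 90-min room-temperature reaction started with ATP-containing substrate, after 30-min enzyme–inhibitor pre-incubation. Fractional velocity was plotted against inhibitor concentration and fitted to a four-parameter IC50 model.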

The target in test [2] is CDK4/Cyclin D1 (Homo sapiens (Human), UniProt P11802). As to the kind of experiment: CDK4/Cyclin D1 CHEF Assay (AQT0258 peptide). The format is biochemical. Particulars: 200 uM ATP, read-out: CDK4/ CyclinD1 AQT IC50. In outline:
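Sox-labelled peptide AQT0258 phosphorylation read as chelation-enhanced fluorescence (ex 360/em 485 nm) with Mg(II). Enzyme preincubated with inhibitor 30 min at 22°C, substrate added, 3 h at 22°C; IC50 from four-parameter fit of fractional velocity versus inhibitor concentration.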

Test [3] addresses CDK2/Cyclin E1 (Homo sapiens (Human), UniProt P24941). Kind of test: CDK2/Cyclin E1 Full length ADP-Glo Kinase Assay. The format is biochemical. The settings on record: 20 uM ATP, read-out: CDK2/ CyclinE1 IC50. In outline:
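ADP-Glo luminescence (ATP depletion, then ADP-to-light conversion) quantified kinase turnover after a 90 min room-temperature reaction started by ATP/substrate, following 30 min enzyme–inhibitor preincubation. Enzyme: full-length CDK2/cyclin E1; IC50 fitted with a four-parameter equation on fractional velocity.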

Test [4] has as its system MCF-7 cells. As to the kind of experiment: Cell Growth Inhibition, MCF-7 (CellTiterGlo, 6 days). The settings on record: Homo sapiens, MCF7, 144 h, MCF-7, 6-day treatment. The format is cell-based. In outline:
(§1)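 IC50 from four-parameter, variable-slope fits of % growth inhibition, derived from CellTiterGlo 2.0 luminescence relative to control. Compounds, usually 10-10,000 nM in half-log steps, stayed 6 days at 37 °C, 5% CO2 with 500 MCF-7 or OVCAR-3 cells/well in 10% FBS RPMI.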

The test system of test [5] is OVCAR-3 cells. Kind of test: Cell Growth Inhibition, OVCAR-3 (CellTiterGlo, 6 days). The format is cell-based. The settings on record: Homo sapiens, 144 h, OVCAR-3, 6-day treatment. In outline: as §1
For test [6], the target named is CDK1/Cyclin B1 (Homo sapiens (Human), UniProt P06493). As to the kind of experiment: CDK1/Cyclin B1 ADP-Glo Kinase Assay. The format is biochemical. Particulars: ADP-Glo, 80 uM ATP; read-out: CDK1 Cyclin B1 IC50. The gist of the method: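 ADP-Glo luminescent readout of ADP production, with IC50 fitted by a four-parameter equation to fractional velocity against inhibitor concentration. Reaction started with ATP-containing substrate after a 30-minute enzyme–inhibitor pre-incubation and stopped after 90 minutes, both at room temperature.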
Chain of CDK1/Cyclin B1 (P06493 whole entry): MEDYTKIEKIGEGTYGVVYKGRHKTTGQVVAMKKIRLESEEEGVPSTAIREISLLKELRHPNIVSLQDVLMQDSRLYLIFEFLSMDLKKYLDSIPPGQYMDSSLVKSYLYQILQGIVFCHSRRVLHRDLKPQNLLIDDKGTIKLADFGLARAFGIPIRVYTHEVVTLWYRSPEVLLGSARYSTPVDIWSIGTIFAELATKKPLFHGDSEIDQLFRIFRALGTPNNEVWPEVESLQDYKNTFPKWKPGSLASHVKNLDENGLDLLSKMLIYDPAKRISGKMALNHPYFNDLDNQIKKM
Chain of CDK1/Cyclin B1 (P14635 whole entry partner): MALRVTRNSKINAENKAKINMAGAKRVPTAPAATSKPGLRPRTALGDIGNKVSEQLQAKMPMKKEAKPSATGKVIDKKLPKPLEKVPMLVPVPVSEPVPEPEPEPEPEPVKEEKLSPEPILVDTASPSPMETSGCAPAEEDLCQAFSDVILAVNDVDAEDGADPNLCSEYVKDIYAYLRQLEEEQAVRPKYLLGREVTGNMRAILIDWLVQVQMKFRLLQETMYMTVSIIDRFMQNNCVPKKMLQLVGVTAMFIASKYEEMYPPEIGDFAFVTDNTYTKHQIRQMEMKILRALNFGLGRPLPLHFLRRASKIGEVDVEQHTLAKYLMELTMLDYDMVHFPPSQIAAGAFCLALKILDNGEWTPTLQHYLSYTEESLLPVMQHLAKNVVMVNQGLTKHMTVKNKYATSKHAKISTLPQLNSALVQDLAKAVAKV

Chain of CDK6/Cyclin D3 (Q00534 whole entry): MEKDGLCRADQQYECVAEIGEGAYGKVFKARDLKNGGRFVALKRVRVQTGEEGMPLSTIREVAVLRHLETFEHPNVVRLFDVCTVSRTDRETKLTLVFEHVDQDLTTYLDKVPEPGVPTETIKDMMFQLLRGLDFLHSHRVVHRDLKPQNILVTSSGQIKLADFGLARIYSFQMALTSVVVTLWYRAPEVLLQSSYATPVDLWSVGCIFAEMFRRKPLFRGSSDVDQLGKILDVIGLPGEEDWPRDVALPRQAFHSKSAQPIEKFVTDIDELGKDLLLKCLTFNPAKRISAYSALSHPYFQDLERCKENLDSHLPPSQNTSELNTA
Chain of CDK6/Cyclin D3 (P30281 whole entry partner): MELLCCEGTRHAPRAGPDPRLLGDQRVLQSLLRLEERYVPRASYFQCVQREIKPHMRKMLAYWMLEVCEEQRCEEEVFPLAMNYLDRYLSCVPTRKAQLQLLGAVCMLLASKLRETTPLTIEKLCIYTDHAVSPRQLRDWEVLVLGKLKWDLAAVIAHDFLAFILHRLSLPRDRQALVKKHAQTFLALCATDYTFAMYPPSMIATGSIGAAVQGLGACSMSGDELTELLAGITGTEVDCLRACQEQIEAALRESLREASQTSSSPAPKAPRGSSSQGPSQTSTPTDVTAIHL
Chain of CDK4/Cyclin D1 (P11802 whole entry): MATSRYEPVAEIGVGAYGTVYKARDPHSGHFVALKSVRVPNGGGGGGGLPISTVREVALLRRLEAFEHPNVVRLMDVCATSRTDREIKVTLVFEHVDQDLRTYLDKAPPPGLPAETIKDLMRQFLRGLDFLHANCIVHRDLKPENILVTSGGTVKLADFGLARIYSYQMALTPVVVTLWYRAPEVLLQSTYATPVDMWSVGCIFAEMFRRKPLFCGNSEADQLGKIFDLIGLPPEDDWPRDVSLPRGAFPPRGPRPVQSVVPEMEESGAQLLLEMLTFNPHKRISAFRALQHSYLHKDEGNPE
Chain of CDK4/Cyclin D1 (P24385 whole entry partner): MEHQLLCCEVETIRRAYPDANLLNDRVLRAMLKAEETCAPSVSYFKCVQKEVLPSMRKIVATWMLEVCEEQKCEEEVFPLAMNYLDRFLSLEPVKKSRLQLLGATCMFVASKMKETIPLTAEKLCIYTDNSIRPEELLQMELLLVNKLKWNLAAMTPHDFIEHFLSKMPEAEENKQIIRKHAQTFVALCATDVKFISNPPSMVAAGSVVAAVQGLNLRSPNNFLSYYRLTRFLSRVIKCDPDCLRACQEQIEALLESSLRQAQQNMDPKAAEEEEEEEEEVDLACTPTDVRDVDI

Regarding `Cc1cc2cnc(Nc3cc4c(cc3F)CN(S(C)(=O)=O)C4)nc2c(N2CC3(CNC3)C2)n1` [Compound 37, N-(6-fluoro-2-(methylsulfonyl)isoindolin-5-yl)-6-methyl-8-(2,6-diazaspiro[3.3]heptan-2-yl)pyrido[3,4-d]pyrimidin-2-amine], the IC50 is more than 2 µM in test [1]; more than 2 µM in test [2]; 0.2 to 0.5 µM in test [3]; more than 2 µM in test [4]; more than 2 µM in test [5]; more than 2 µM in test [6].
As to `Cc1cc2cnc(Nc3cnn(CC4(N(C)C)CC4)c3)nc2c(N2CCC(C#N)(C3CC3)C2)n1` (stereo not drawn) [Compound 38, 3-cyclopropyl-1-(2-((1-((1-(dimethylamino)cyclopropyl)methyl)-1H-pyrazol-4-yl)amino)-6-methylpyrido[3,4-d]pyrimidin-8-yl)pyrrolidine-3-carbonitrile], the IC50 in test [1] was more than 2 µM; in test [2], 0.5 to 2 µM; in test [3], less than 0.2 µM; in test [4], more than 2 µM; in test [5] it was 0.5 to 2 µM; in test [6], more than 2 µM.
Consider `Cc1cc2cnc(N[C@H]3CC[C@H](CN(C)C)CC3)nc2c(N2CCC3(C2)CC3(F)F)n1` (stereo partly drawn) [Compound 40, 8-(1,1-difluoro-5-azaspiro[2.4]heptan-5-yl)-N-((1r,4r)-4-((dimethylamino)methyl)cyclohexyl)-6-methylpyrido[3,4-d]pyrimidin-2-amine], for which the IC50 was less than 0.2 µM in test [1]; less than 0.2 µM in test [2]; less than 0.2 µM in test [3]; 0.5 to 2 µM in test [4]; 0.5 to 2 µM in test [5]; more than 2 µM in test [6].
Turning to `Cc1cc2cnc(NC3CCN(S(C)(=O)=O)CC3)nc2c(N2CCC3(C2)CC3(F)F)n1` (stereo not drawn) [Compound 41, 8-(1,1-difluoro-5-azaspiro[2.4]heptan-5-yl)-6-methyl-N-(1-(methylsulfonyl)piperidin-4-yl)pyrido[3,4-d]pyrimidin-2-amine], the IC50 in test [1] was less than 0.2 µM; in test [2] it was less than 0.2 µM; in test [3], less than 0.2 µM; in test [4], more than 2 µM; in test [5], more than 2 µM; in test [6], less than 0.2 µM.
As to `Cc1cc2cnc(NC3CC4CC3CN4C)nc2c(N2CCC3(C2)CC3(F)F)n1` (stereo not drawn) [Compound 43, 8-(1,1-difluoro-5-azaspiro[2.4]heptan-5-yl)-6-methyl-N-(2-methyl-2-azabicyclo[2.2.1]heptan-5-yl)pyrido[3,4-d]pyrimidin-2-amine], the IC50 in test [1] was 0.2 to 0.5 µM; in test [2] it was less than 0.2 µM; in test [3], 0.5 to 2 µM; in test [4], 0.5 to 2 µM; in test [5] it was 0.5 to 2 µM; in test [6], more than 2 µM.
Take `Cc1cc2cnc(Nc3ccc4c(c3)CN(C)C4)nc2c(N2CC3(C2)CN(C2CC2)C3)n1` [Compound 44, 8-(6-cyclopropyl-2,6-diazaspiro[3.3]heptan-2-yl)-6-methyl-N-(2-methylisoindolin-5-yl)pyrido[3,4-d]pyrimidin-2-amine]: the IC50 in test [1] is 0.5 to 2 µM; in test [2], 0.2 to 0.5 µM; in test [3], more than 2 µM; in test [4], more than 2 µM; in test [5], more than 2 µM; in test [6] it was more than 2 µM.
As for `Cc1cc2cnc(N[C@H]3CC[C@@H](CN(C)C)CC3)nc2c(N2CCC3(C2)CC3(F)F)n1` (stereo partly drawn) [Compound 45, 8-(1,1-difluoro-5-azaspiro[2.4]heptan-5-yl)-N-((1s,4s)-4-((dimethylamino)methyl)cyclohexyl)-6-methylpyrido[3,4-d]pyrimidin-2-amine], the IC50 in test [1] was 0.5 to 2 µM; in test [2] it was less than 0.2 µM; in test [3] it was more than 2 µM; in test [4], more than 2 µM; in test [5], more than 2 µM; in test [6], 0.001 µM.
With `Cc1cc2cnc(Nc3ccc4c(c3)CN(C3CC3)C4)nc2c(N2CC3(CCNC3)C2)n1` [Compound 47, N-(2-cyclopropylisoindolin-5-yl)-6-methyl-8-(2,6-diazaspiro[3.4]octan-2-yl)pyrido[3,4-d]pyrimidin-2-amine], the IC50 in test [1] was less than 0.2 µM; in test [2] it was less than 0.2 µM; in test [3] it was less than 0.2 µM; in test [4], 0.5 to 2 µM; in test [5] it was 0.5 to 2 µM; in test [6], 0.5 to 2 µM.
As for `Cc1cc2cnc(NC3CCN(S(=O)(=O)C4CC4)CC3)nc2c(N2CC3(C2)CN(C2CC2)C3)n1` [Compound 48, 8-(6-cyclopropyl-2,6-diazaspiro[3.3]heptan-2-yl)-N-(1-(cyclopropylsulfonyl)piperidin-4-yl)-6-methylpyrido[3,4-d]pyrimidin-2-amine], the IC50 in test [1] was 0.2 to 0.5 µM; in test [2], less than 0.2 µM; in test [3] it was less than 0.2 µM; in test [4], more than 2 µM; in test [5], more than 2 µM; in test [6] it was 0.5 to 2 µM.
In the case of `Cc1cc2cnc(NC3CCN(S(=O)(=O)C4CC4)CC3)nc2c(N2CC3(CCN(C)C3)C2)n1` [Compound 49, N-(1-(cyclopropylsulfonyl)piperidin-4-yl)-6-methyl-8-(6-methyl-2,6-diazaspiro[3.4]octan-2-yl)pyrido[3,4-d]pyrimidin-2-amine], the IC50 in test [1] was 0.2 to 0.5 µM; in test [2], less than 0.2 µM; in test [3] it was less than 0.2 µM; in test [4], 0.5 to 2 µM; in test [5], 0.5 to 2 µM; in test [6], 0.5 to 2 µM.
Take `FC(F)c1cc2cnc(Nc3ccc4c(c3)CN(C3CC3)C4)nc2c(N2CC3(CCNC3)C2)n1` [Compound 50, N-(2-cyclopropylisoindolin-5-yl)-6-(difluoromethyl)-8-(2,6-diazaspiro[3.4]octan-2-yl)pyrido[3,4-d]pyrimidin-2-amine]: the IC50 in test [1] was less than 0.2 µM; in test [2], less than 0.2 µM; in test [3] it was less than 0.2 µM; in test [4], 0.5 to 2 µM; in test [5], 0.5 to 2 µM; in test [6] it was 0.5 to 2 µM.
As for `Cc1cc2cnc(NC3CCN(S(C)(=O)=O)CC3)nc2c(N2CCC3(CCC3(F)F)C2)n1` (stereo not drawn) [Compound 52, 8-(1,1-difluoro-6-azaspiro[3.4]octan-6-yl)-6-methyl-N-(1-(methylsulfonyl)piperidin-4-yl)pyrido[3,4-d]pyrimidin-2-amine], the IC50 in test [1] is less than 0.2 µM; in test [2], less than 0.2 µM; in test [3], less than 0.2 µM; in test [4] it was more than 2 µM; in test [5] it was 0.5 to 2 µM; in test [6], less than 0.2 µM.
On to `Cc1cc2cnc(NC3CCN(S(C)(=O)=O)CC3)nc2c(N2CCC3(C2)CC(F)(F)C3)n1` [Compound 53, 8-(2,2-difluoro-6-azaspiro[3.4]octan-6-yl)-6-methyl-N-(1-(methylsulfonyl)piperidin-4-yl)pyrido[3,4-d]pyrimidin-2-amine], for which the IC50 in test [1] is less than 0.2 µM; in test [2], less than 0.2 µM; in test [3], less than 0.2 µM; in test [4] it was more than 2 µM; in test [5], more than 2 µM; in test [6] it was more than 2 µM.
`Cc1cc2cnc(NC3CCN(S(C)(=O)=O)CC3)nc2c(N2CCC3(CC3)C2)n1` [Compound 54, 6-methyl-N-(1-(methylsulfonyl)piperidin-4-yl)-8-(5-azaspiro[2.4]heptan-5-yl)pyrido[3,4-d]pyrimidin-2-amine]: the IC50 is less than 0.2 µM in test [1]; less than 0.2 µM in test [2]; less than 0.2 µM in test [3]; more than 2 µM in test [4]; 0.5 to 2 µM in test [5]; less than 0.2 µM in test [6].
